Test results taken from patent US20130084379A1, “ACTIVE INGREDIENT DELIVERY SYSTEM” (FIRMENICH SA, priority 2010, published 2013).

Experiment: Dissolution kinetics in a model beverage base (Distek 2100B USP 2 dissolution system, UV/VIS probe at 324 nm)
Format: physicochemical
Settings: 200 rpm, 20 ppm nominal
Protocol: The dissolution kinetics of the powder prepared in example 1 was compared to that of Compound 1 alone. Evaluation was performed under standard conditions using a Distek 2100B USP 2 dissolution system and a model beverage base.
The model beverage was prepared by stirring together 35 g sucrose, 1.5 g citric acid and 965.3 g deionised water until the sucrose was fully dissolved. Comparative sample 1 was prepared by adding 20 mg of Compound 1 (unencapsulated) to 1 litre of the beverage base to provide 20 ppm of compound 1. Sample 2 was prepared by adding 200 mg of the powder prepared in example 1 to 1 litre of the beverage to provide, once dissolved, a solution containing 20 ppm of compound 1. The samples were each stirred at 200 rpm and the concentration of compound 1 in solution was monitored as a function of time using a UV/VIS spectrometer probe (measuring absorbance at 324 nm). The results are given in the following table (where the values represent the amount (ppm) of Compound 1 in solution: […]

time at which 50% dissolution of Compound 1 was achieved: approximately 3600 seconds
Concentration in Solution (amount of Compound 1 in solution) (time 0 seconds): 0 ppm
Concentration in Solution (amount of Compound 1 in solution) (time 10 seconds): 0.1 ppm
Concentration in Solution (amount of Compound 1 in solution) (time 30 seconds): 0.2 ppm
Concentration in Solution (amount of Compound 1 in solution) (time 60 seconds): 0.3 ppm
Concentration in Solution (amount of Compound 1 in solution) (time 300 seconds): 0.6 ppm
Concentration in Solution (amount of Compound 1 in solution) (time 600 seconds): 1.4 ppm
Concentration in Solution (amount of Compound 1 in solution) (time 3600 seconds): 10.2 ppm
SMILES: CCCNC(=O)C(C)(C)COc1cccc2c1C(N)=NS(=O)(=O)N2 [Sample 1]
